Source: patent US20030199002A1, “Clk-2 nucleic acids, polypeptides and uses thereof” (priority 2000, published 2003)

Key:
[1] = tested on: SK-HEP-1 cells overexpressing hclk-2; test: Cell death assay (trypan blue exclusion) in SK-HEP-1 cells overexpressing hclk-2; assay type: cell-based, human; conditions: SK-HEP-1 cells overexpressing hclk-2 vs control cells
Method: (§1) FIG. 11 illustrates the affect of hclk-2 overexpression on sensitivity to menadione, t-butyl hydroperoxide and hydroxyurea of SK-HEP-1 cells. SK-HEP-1 cells overexpressing hclk-2 and control cells were seeded at 1×10^5/well in a 6-well dish and were treated with γ-rays or apoptosis-inducing compounds for various lengths of time (see Table 7). Cells were then trypsinized, diluted and stained with 0.2% trypan blue. Cell viability was expressed as the percentage of cells excluding trypan blue. The data shown are the means of triplicate experiments. When cells were treated with menadione, t-butyl hydroperoxide or hydroxyurea, the viability of SK-HEP-1 cells overexpressing hclk-2 (44%, 30%, 40% respectively) was dramatically lower than that of the control cells (70%, 63%, 76%), respectively.
(§2) To determine the occurrence of cell death, cells were seeded at 1×10^5 in 6-well dishes. The next day the cells were treated by γ-ray (20 Gy) and counted 72 hr later. A series of different apoptosis-inducing agents were also investigated and the cells were analyzed at various times following treatment (see Table 7). Cell viability was measured by the trypan blue exclusion method.

[2] = Cell death assay (trypan blue exclusion) in SK-HEP-1 control cells; assay type: cell-based; conditions: human; SK-HEP-1 control cells (empty vector); concentration and time per Table 7: menadione 12 μM 24 hr, t-butyl hydroperoxide 40 μM 48 hr, hydroxyurea 0.6 mM 96 hr; means of triplicate; read-out: Cell viability (percentage of cells excluding trypan blue)
Method: as §1, §2

[3] = Cell death assay (trypan blue exclusion) in SK-HEP-1 cells overexpressing hclk-2; assay type: cell-based, human; conditions: human; SK-HEP-1 cells overexpressing hclk-2; concentration and time per Table 7: menadione 12 μM 24 hr, t-butyl hydroperoxide 40 μM 48 hr, hydroxyurea 0.6 mM 96 hr; means of triplicate; read-out: Cell viability (percentage of cells excluding trypan blue)
Method: as §1, §2

SMILES | Sensitivity of cells overexpressing hclk-2 to the apoptosis-inducing agent, compared to control cells [1] | viability [2] | viability [3]
COc1cc([C@@H]2c3cc4c(cc3[C@@H](O[C@@H]3O[C@@H]5CO[C@@H](C)O[C@H]5[C@H](O)[C@H]3O)[C@H]3COC(=O)[C@H]23)OCO4)cc(OC)c1O [etoposide, Etoposide] | no evidence to suggest that an increased sensitivity |  | 
CC(C)(C)OO [t-butyl hydroperoxide, t-Butyl hydroperoxide] | specifically hypersensitive | 63% | 30%
CC1=CC(=O)c2ccccc2C1=O [menadione, Menadione] | specifically hypersensitive |  | 
NC(=O)NO [hydroxyurea, Hydroxyurea] | also hypersensitive |  | 
